From ChEMBL document CHEMBL5338791, “Discovery of Novel 1,3-Diphenylpyrazine Derivatives as Potent S-Phase Kinase-Associated Protein 2 (Skp2) Inhibitors for the Treatment of Cancer” (J Med Chem, 2023)
pIC50: −log10 of the molar value. In brackets after ≈: the same amount, converted by molar mass. Activity calls are given as the source filed them. The rule behind the calls is not given here.

Experiments:
[1] = target: T1, S-phase kinase-associated protein 2/Cyclin-dependent kinases regulatory subunit 1/S-phase kinase-associated protein 1 (Homo sapiens, UniProt Q13309); assay: Inhibition of GST-tagged Skp2/Skp1 (unknown origin)/His6-tagged Cks1 (unknown origin) interaction by AlphaScreen assay; assay type: protein assay
[2] = Toxicity in mouse assessed as increase in blood BUN level at 5 mg/kg; assay type: organism-based; settings: in vivo
[3] = Toxicity in mouse assessed as increase in blood GGT level at 5 mg/kg; assay type: organism-based; settings: in vivo
[4] = Toxicity in mouse assessed as increase in blood total bilirubin level at 5 mg/kg; assay type: organism-based; settings: in vivo
[5] = Toxicity in mouse assessed as increase in blood glutamic pyruvic transaminase level at 5 mg/kg; assay type: organism-based; settings: in vivo
[6] = Toxicity in mouse assessed as increase in blood creatinine level at 5 mg/kg; assay type: organism-based; settings: in vivo
[7] = Toxicity in mouse assessed as decrease in total protein level at 5 mg/kg; assay type: organism-based; settings: in vivo
[8] = Toxicity in mouse assessed as decrease in platelet level at 5 mg/kg; assay type: organism-based; settings: in vivo
PC-3 [9] = assay: Antitumor activity against human PC-3 cells xenografted in NOD-SCID mouse model assessed as tumor growth inhibition at 5 mg/kg, ip administered once every 3 days for 21 days relative to control; assay type: functional; settings: PC-3, 504 h, time 21 day, read-out: TGI
PC-3 [10] = assay: Induction of cell cycle arrest in human PC-3 cells assessed as accumulation of cells at S phase at 20 uM incubated for 48 hrs by flow cytometry (reference value: 22.44 %); assay type: functional
MGC-803 [11] = assay: Induction of apoptosis in human MGC-803 cells assessed as late apoptotic cells at 20 uM incubated for 48 hrs by annexin V-FITC/PI staining based flow cytometry (reference value: 0.95 %); assay type: functional
PC-3 [12] = assay: Induction of apoptosis in human PC-3 cells assessed as necrotic cells at 20 uM incubated for 48 hrs by annexin V-FITC/PI staining based flow cytometry (reference value: 0.14 %); assay type: functional
MGC-803 [13] = assay: Upregulation of p27 level in human MGC-803 cells at 20 uM incubated for 48 hrs by Western blot analysis; assay type: functional, cell-based
MGC-803 [14] = assay: Upregulation of p21 level in human MGC-803 cells at 20 uM incubated for 48 hrs by Western blot analysis; assay type: functional, cell-based
[15] = target: T1, S-phase kinase-associated protein 2/Cyclin-dependent kinases regulatory subunit 1/S-phase kinase-associated protein 1; assay: Inhibition of GST-tagged Skp2/Skp1 (unknown origin)/His6-tagged Cks1 (unknown origin) interaction preincubated with Skp2/Skp1 for 10 mins followed by Cks1 addition measured after 20 mins by HTRF assay; assay type: protein assay
MGC-803 [16] = assay: Induction of apoptosis in human MGC-803 cells assessed as early apoptotic cells at 20 uM incubated for 48 hrs by annexin V-FITC/PI staining based flow cytometry (reference value: 0.21 %); assay type: functional
MGC-803 [17] = assay: Induction of cell cycle arrest in human MGC-803 cells assessed as accumulation of cells at G2 phase at 20 uM incubated for 48 hrs by flow cytometry (reference value: 21.35 %); assay type: functional
PC-3 [18] = assay: Induction of apoptosis in human PC-3 cells assessed as viable cells at 20 uM incubated for 48 hrs by annexin V-FITC/PI staining based flow cytometry (reference value: 98.6 %); assay type: functional; settings: read-out: Activity
PC-3 [19] = assay: Induction of apoptosis in human PC-3 cells assessed as early apoptotic cells at 20 uM incubated for 48 hrs by annexin V-FITC/PI staining based flow cytometry (reference value: 0.85 %); assay type: functional
PC-3 [20] = assay: Induction of cell cycle arrest in human PC-3 cells assessed as accumulation of cells at G2 phase at 20 uM incubated for 48 hrs by flow cytometry (reference value: 22.59 %); assay type: functional
MGC-803 [21] = assay: Induction of apoptosis in human MGC-803 cells assessed as viable cells at 20 uM incubated for 48 hrs by annexin V-FITC/PI staining based flow cytometry (reference value: 98 %); assay type: functional; settings: read-out: Activity
PC-3 [22] = assay: Induction of apoptosis in human PC-3 cells assessed as late apoptotic cells at 20 uM incubated for 48 hrs by annexin V-FITC/PI staining based flow cytometry (reference value: 0.45 %); assay type: functional
PC-3 [23] = assay: Upregulation of p21 level in human PC-3 cells at 20 uM incubated for 48 hrs by Western blot analysis; assay type: functional, cell-based
MGC-803 [24] = assay: Induction of apoptosis in human MGC-803 cells assessed as necrotic cells at 20 uM incubated for 48 hrs by annexin V-FITC/PI staining based flow cytometry (reference value: 0.89 %); assay type: functional
MGC-803 [25] = assay: Induction of cell cycle arrest in human MGC-803 cells assessed as accumulation of cells at G1 phase at 20 uM incubated for 48 hrs by flow cytometry (reference value: 54.46 %); assay type: functional
PC-3 [26] = assay: Induction of cell cycle arrest in human PC-3 cells assessed as accumulation of cells at G1 phase at 20 uM incubated for 48 hrs by flow cytometry (reference value: 57.39 %); assay type: functional
PC-3 [27] = assay: Upregulation of p27 level in human PC-3 cells at 20 uM incubated for 48 hrs by Western blot analysis; assay type: functional, cell-based
PC-3 [28] = assay: Downregulation of Skp2 level in human PC-3 cells at 20 uM incubated for 48 hrs by Western blot analysis; assay type: functional, cell-based
MGC-803 [29] = assay: Induction of cell cycle arrest in human MGC-803 cells assessed as accumulation of cells at S phase at 20 uM incubated for 48 hrs by flow cytometry (reference value: 22.72 %); assay type: functional
MGC-803 [30] = assay: Downregulation of Skp2 level in human MGC-803 cells at 20 uM incubated for 48 hrs by Western blot analysis; assay type: functional, cell-based
[31] = Solubility in cell culture medium by HPLC analysis; assay type: physicochemical
NCI-H1299 = assay: Antitumor activity against human NCI-H1299 cells assessed as cell growth inhibition incubated for 72 hrs by MTT assay; assay type: functional, cell-based; settings: NCI-H1299, 72 h
PC-3 [32] = assay: Antitumor activity against human PC-3 cells assessed as cell growth inhibition incubated for 72 hrs by MTT assay; assay type: functional, cell-based; settings: PC-3, 72 h
[33] = Antitumor activity against human EC1 cells assessed as cell growth inhibition incubated for 72 hrs by MTT assay; assay type: functional, cell-based; settings: EC1, 72 h
MCF7 = assay: Antitumor activity against human MCF7 cells assessed as cell growth inhibition incubated for 72 hrs by MTT assay; assay type: functional, cell-based; settings: MCF7, 72 h
MGC-803 [34] = assay: Antitumor activity against human MGC-803 cells assessed as cell growth inhibition incubated for 72 hrs by MTT assay; assay type: functional, cell-based; settings: MGC-803, 72 h

T1 sequence (P61024 whole entry): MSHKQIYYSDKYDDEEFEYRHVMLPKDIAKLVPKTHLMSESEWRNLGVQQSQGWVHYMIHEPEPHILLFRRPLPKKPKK
T1 sequence (Q13309 whole entry): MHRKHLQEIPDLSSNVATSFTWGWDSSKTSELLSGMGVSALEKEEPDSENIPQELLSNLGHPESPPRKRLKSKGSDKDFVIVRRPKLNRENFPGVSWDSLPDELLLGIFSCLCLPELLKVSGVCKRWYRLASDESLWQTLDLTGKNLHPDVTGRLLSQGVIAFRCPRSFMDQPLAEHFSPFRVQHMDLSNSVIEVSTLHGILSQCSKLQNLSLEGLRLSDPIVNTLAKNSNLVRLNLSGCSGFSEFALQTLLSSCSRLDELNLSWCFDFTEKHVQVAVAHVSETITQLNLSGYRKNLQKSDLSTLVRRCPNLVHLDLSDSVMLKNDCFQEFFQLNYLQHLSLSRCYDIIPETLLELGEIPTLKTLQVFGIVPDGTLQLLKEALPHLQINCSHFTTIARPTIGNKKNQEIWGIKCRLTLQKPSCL
T1 sequence (P63208 whole entry, further chain): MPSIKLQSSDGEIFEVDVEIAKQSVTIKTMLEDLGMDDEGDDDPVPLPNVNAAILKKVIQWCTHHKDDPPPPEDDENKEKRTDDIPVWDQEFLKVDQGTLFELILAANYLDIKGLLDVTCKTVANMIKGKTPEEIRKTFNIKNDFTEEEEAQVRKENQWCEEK

O=C(OC12CC3CC(CC(C3)C1)C2)c1ccc(NCc2cc(O)ccc2O)cc1
pIC50 [1]: 4.44

CC(=O)O[C@H]1C(=O)[C@@]2(C)[C@H]([C@H](OC(=O)c3ccccc3)[C@]3(O)C[C@H](OC(=O)[C@H](O)[C@@H](NC(=O)c4ccccc4)c4ccccc4)C(C)=C1C3(C)C)[C@]1(OC(C)=O)CO[C@@H]1C[C@@H]2O [PACLITAXEL]
Activity [2]: Toxic | Activity [3]: Toxic | Activity [4]: Toxic | Activity [5]: Toxic | Activity [6]: Toxic | Activity [7]: Toxic | Activity [8]: Toxic | inhibition in vivo at 5 mg/kg (PC-3 [9]): 75.8%

CC(C)N(CCCCOCC(=O)NS(C)(=O)=O)c1cnc(-c2ccccc2)c(-c2ccccc2)n1 [SELEXIPAG]
Activity (PC-3 [10]): 34.85% | Activity (MGC-803 [11]): 1.21% | Activity (PC-3 [12]): 2.22% | Activity (MGC-803 [13]): Active | Activity (MGC-803 [14]): Active | pIC50 [15]: 4.37 | Activity (MGC-803 [16]): 1.58% | Activity (MGC-803 [17]): 21.27% | viability at 20 µM (PC-3 [18]): 92.7% | Activity (PC-3 [19]): 0.57% | Activity (PC-3 [20]): 18.81% | viability at 20 µM (MGC-803 [21]): 96.8% | Activity (PC-3 [22]): 4.54% | Activity (PC-3 [23]): Active | Activity (MGC-803 [24]): 0.44% | Activity (MGC-803 [25]): 49.75% | Activity (PC-3 [26]): 44.88% | Activity (PC-3 [27]): Active | Activity (PC-3 [28]): Active | Activity (MGC-803 [29]): 27.3% | Activity (MGC-803 [30]): Active

CC(C)(C)C(=O)NCC1CCN(c2cnc(-c3ccc(S(C)(=O)=O)cc3)c(-c3ccccc3)n2)CC1
solubility [31]: 0.19 µg/mL (≈ 0.375 µM) | pIC50 (NCI-H1299): 4.29 | pIC50 [15]: 5.57 | pIC50 (PC-3 [32]): 4.20 | pIC50 [33]: 4.05 | pIC50 (MCF7): 4.18 | pIC50 (MGC-803 [34]): 4.06
